Results published in patent publication US7335645B2, “Effectors of dipeptidyl peptidase IV for topical use” (Probiodrug AG, priority 1999, dated 2008).
Counter-ions that a name gives are not always drawn. Each block holds one compound with its values, some of them ahead of it.

What was measured:
[1] = molecular target: T1, plasma-DP IV (Rattus norvegicus, UniProt P14740); assay: Inhibition of plasma-DP IV after oral administration in healthy Wistar rats; type: in vivo; settings: 5 μmol/300 g rat
T1 construct: from tissue; host or cells: plasma of Wistar rats after oral dosing
T1 sequence (P14740 38-767 limits assumed): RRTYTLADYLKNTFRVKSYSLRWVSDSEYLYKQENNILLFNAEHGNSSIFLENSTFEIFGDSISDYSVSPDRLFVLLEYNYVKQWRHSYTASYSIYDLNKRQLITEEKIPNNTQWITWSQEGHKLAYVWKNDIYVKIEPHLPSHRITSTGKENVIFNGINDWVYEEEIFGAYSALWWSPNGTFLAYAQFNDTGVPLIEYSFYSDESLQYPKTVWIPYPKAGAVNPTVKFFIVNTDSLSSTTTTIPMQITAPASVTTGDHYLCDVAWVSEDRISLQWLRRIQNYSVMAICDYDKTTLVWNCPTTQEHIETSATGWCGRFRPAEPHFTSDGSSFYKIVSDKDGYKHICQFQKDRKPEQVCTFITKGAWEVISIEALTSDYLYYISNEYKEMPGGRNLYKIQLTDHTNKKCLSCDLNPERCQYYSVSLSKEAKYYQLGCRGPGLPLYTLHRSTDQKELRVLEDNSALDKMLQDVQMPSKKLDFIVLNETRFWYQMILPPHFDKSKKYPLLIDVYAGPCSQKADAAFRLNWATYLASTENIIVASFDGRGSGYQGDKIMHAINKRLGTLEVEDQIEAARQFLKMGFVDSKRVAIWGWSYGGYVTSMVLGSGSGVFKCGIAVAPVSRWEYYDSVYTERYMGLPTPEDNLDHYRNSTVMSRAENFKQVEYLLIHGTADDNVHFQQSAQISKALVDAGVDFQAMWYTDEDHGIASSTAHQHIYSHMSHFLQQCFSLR
Experimental: FIG. 1: Systemic action of orally administered DP IV-inhibitors in healthy Wistar rats.
The course, over time, of the percentage inhibition of plasma-DP IV activity following oral administration of 5 μmol of inhibitor per 300 g of rat (n=2) is shown.
The inhibition of plasma-DP IV (systemic action) was investigated following oral administration of side chain-modified DP IV-inhibitors ([…]) compared with unmodified inhibitors in healthy Wistar rats.

[2] = molecular target: T2, PepT1 (Oryctolagus cuniculus, UniProt P36836); assay: Inhibition of 3H-D-Phe-Ala binding to PepT1-expressing P. pastoris cells; settings: read-out: EC50: effective concentration inhibiting the binding of 3H-D-Phe-Ala to PepT1-expressing P. pastoris cells by 50%
T2 construct: expressed in transfected cells
T2 sequence (P36836 1-707): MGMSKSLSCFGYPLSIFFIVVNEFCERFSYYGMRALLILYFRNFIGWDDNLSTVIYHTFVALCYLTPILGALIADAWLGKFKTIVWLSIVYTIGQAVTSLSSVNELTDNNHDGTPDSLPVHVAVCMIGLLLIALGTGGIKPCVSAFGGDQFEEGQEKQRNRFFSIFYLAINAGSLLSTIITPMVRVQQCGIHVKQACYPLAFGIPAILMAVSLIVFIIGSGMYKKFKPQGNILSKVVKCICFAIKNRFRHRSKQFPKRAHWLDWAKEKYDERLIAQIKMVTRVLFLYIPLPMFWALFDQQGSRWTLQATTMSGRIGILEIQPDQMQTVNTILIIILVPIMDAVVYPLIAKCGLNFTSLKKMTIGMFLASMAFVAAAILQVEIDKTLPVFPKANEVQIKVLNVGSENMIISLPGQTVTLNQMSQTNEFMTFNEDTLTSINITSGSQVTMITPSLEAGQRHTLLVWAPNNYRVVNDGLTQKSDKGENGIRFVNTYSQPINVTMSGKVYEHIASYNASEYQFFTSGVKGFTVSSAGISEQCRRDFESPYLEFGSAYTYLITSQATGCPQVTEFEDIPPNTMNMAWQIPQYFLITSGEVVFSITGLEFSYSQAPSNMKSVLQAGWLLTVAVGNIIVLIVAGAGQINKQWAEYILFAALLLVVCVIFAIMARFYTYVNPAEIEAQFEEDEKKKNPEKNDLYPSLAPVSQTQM
Experimental: (§1) Side chain-modified glutamylthiazolidines having a structure H-Glu(X)-Thia were synthesized, with polyethylene glycol or glycine oligomers of various chain lengths being used as X (see Method A for description of synthesis). The binding characteristics of those derivatives and their transportability by the peptide transporter PepT1 were investigated and the Ki values with respect to DP IV were determined (Table 1).

[3] = system: PepT1; assay: Transport at PepT1-expressing X. leavis oocytes, two-electrode voltage clamp method; type: cell-based; parameters: unit not given here; settings: PepT1-expressing oocytes of X. leavis, n.d. = not detectable
Experimental: as §1

[4] = literature statement (Reinhold et al., 1998); cited from earlier work

Compound: N[C@@H](CCC(=O)NCC(=O)NCC(=O)NCC(=O)NCC(=O)NCC(=O)O)C(=O)N1CCSC1 [H-Glu(Gly5)-Thia]
- Systemic action (inhibition of plasma-DP IV) after oral administration [1]: no systemic action of the orally administered active ingredient is detectable

- melting point: 91 to 94 °C
Compound: N[C@@H](CCC(=O)NCC(=O)NCC(=O)NCC(=O)O)C(=O)N1CCSC1 (as salt: trifluoroacetate) [H-Glu(Gly3)-Thia]

- EC50 [2]: 3.18 mM
- Imax: inward currents generated by the transport [3]: 42 ± 11
Compound: H-Gly(NHOH)-Thia

- EC50 [2]: 1.1 mM
- Imax: inward currents generated by the transport [3]: 35 ± 13
Compound: NC(CCC(=O)O)C(=O)N1CCSC1 (stereo not drawn) [H-Glu-Thia]

Compound: H-Glu(PEG)-Thia
- EC50 [2]: > 10 mM

Compound: N[C@@H](CCCCNC(=O)OCc1ccc([N+](=O)[O-])cc1)C(=O)N1CCSC1 [Lys(Z-NO2)-Thia]
- Transport of the inhibitor [4]: transported completely

Compound: N[C@@H](CCC(=O)NCC(=O)O)C(=O)N1CCSC1 [Glu(Gly)-Thia]
- Transport of the inhibitor [4]: transported completely
